{"source": "ChEMBL document CHEMBL1123943", "about": "“Biologically active dihydrodiol metabolites of polycyclic aromatic hydrocarbons structurally related to the potent carcinogenic hydrocarbon 7,12-dimethylbenz[a]anthracene” (1988)", "type_in_all_cases": "functional", "key": {"[1]": {"organism": "Mus musculus", "assay": "Tumor initiating activity measured as percentage of mice with papillomas at a dose of 200 nmol"}, "[2]": {"organism": "Mus musculus", "assay": "Tumor initiating activity measured as number of papillomas on mouse skin at a dose of 200 nmol"}, "[3]": {"system": "Rattus norvegicus", "assay": "Tumor initiating activity measured as incidence of % aberrent cells with chromosomal aberrations, at given dose of 25 mg/kg"}, "[4]": {"system": "Rattus norvegicus", "assay": "Tumor initiating activity measured as number of chromosomal aberrations per cell, at a dose of 25 mg/kg"}, "[5]": {"organism": "Mus musculus", "assay": "Tumor initiating activity measured as number of papillomas on mouse skin at a dose of 100 nmol"}, "[6]": {"organism": "Mus musculus", "assay": "Tumor initiating activity measured as percentage of mice with papillomas at a dose of 100 nmol"}, "[7]": {"organism": "Mus musculus", "assay": "Tumor initiating activity measured as number of papillomas on mouse skin at a dose of 50 nmol"}, "[8]": {"organism": "Mus musculus", "assay": "Tumor initiating activity measured as percentage of mice with papillomas at a dose of 50 nmol"}, "[9]": {"system": "Rattus norvegicus", "assay": "Tumor initiating activity measured as incidence of % aberrent cells with chromosomal aberrations, at given dose of 50 mg/kg"}, "[10]": {"system": "Rattus norvegicus", "assay": "Tumor initiating activity measured as number of chromosomal aberrations per cell, at a dose of 50 mg/kg"}, "[11]": {"system": "Rattus norvegicus", "assay": "Tumor initiating activity measured as number of chromosomal aberrations per cell, at given dose 50 mg/kg"}}}
{"smiles": "c1cc2c3c(c4ccc5ccccc5c4cc3c1)CC2", "note": "[CHOLANTHRENE]", "values": [{"measurement": "Activity", "setting": "[1]", "result": 93, "unit": "%"}, {"measurement": "papillomas per mouse", "setting": "[2]", "result": 6.9, "unit": "papillomas/mouse"}]}
{"smiles": "Oc1ccc2c(ccc3c4c5c(cccc5cc32)CC4)c1O", "values": [{"measurement": "Activity", "setting": "[1]", "result": 80, "unit": "%"}, {"measurement": "papillomas per mouse", "setting": "[2]", "result": 3.32, "unit": "papillomas/mouse"}]}
{"smiles": "Cc1c2ccccc2cc2ccc3c(O)c(O)ccc3c12", "values": [{"measurement": "Activity", "setting": "[3]", "result": 12.8, "unit": "%"}, {"measurement": "aberrations per cell", "setting": "[4]", "result": 0.17, "unit": "aberrations/cell"}]}
{"smiles": "Cc1ccc2cc3c(ccc4ccccc43)c3c2c1CC3", "note": "[3-METHYLCHOLANTHRENE]", "values": [{"measurement": "papillomas per mouse", "setting": "[5]", "result": 7.13, "unit": "papillomas/mouse"}, {"measurement": "Activity", "setting": "[6]", "result": 97, "unit": "%"}]}
{"smiles": "Cc1c2cccc3c2c(c2ccc4c(O)c(O)ccc4c12)CC3", "values": [{"measurement": "papillomas per mouse", "setting": "[7]", "result": 16.5, "unit": "papillomas/mouse"}, {"measurement": "Activity", "setting": "[8]", "result": 100, "unit": "%"}]}
{"smiles": "Cc1ccc2cc3c(ccc4c(O)c(O)ccc43)c3c2c1CC3", "values": [{"measurement": "papillomas per mouse", "setting": "[5]", "result": 7.7, "unit": "papillomas/mouse"}, {"measurement": "Activity", "setting": "[6]", "result": 100, "unit": "%"}]}
{"smiles": "Oc1ccc2c(ccc3cc4ccccc4cc32)c1O", "values": [{"measurement": "Activity", "setting": "[9]", "result": 2.2, "unit": "%"}, {"measurement": "aberrations per cell", "setting": "[10]", "result": 0.02, "unit": "aberrations/cell"}]}
{"smiles": "Cc1c2ccccc2cc2c1ccc1c(O)c(O)ccc12", "values": [{"measurement": "Activity", "setting": "[9]", "result": 6.6, "unit": "%"}, {"measurement": "aberrations per cell", "setting": "[10]", "result": 0.07, "unit": "aberrations/cell"}]}
{"smiles": "Cc1c2cccc3c2c(c2ccc4ccccc4c12)CC3", "values": [{"measurement": "papillomas per mouse", "setting": "[7]", "result": 14.7, "unit": "papillomas/mouse"}, {"measurement": "Activity", "setting": "[8]", "result": 100, "unit": "%"}]}
{"smiles": "Cc1c2ccccc2c(C)c2c1ccc1c(O)c(O)ccc12", "values": [{"measurement": "Activity", "setting": "[3]", "result": 22.2, "unit": "%"}, {"measurement": "Activity", "setting": "[9]", "result": 53, "unit": "%"}, {"measurement": "aberrations per cell", "setting": "[4]", "result": 0.31, "unit": "aberrations/cell"}, {"measurement": "aberrations per cell", "setting": "[11]", "result": 1.44, "unit": "aberrations/cell"}]}
